Entries after “also recorded” stand apart in the source; their conditions may differ.
Tests used:
[1] = tested on: primary astrocyte cultures; test: Glucose transport inhibition in astrocytes (Example 13); assay type: cell-based, rat; details: 24 hours exposure
[2] = tested on: human aortic smooth muscle cells; test: Human aortic smooth muscle cell proliferation (Example 10); assay type: cell-based; details: HASMC, progesterone 10 μg/ml; for smooth muscle cell proliferation (in words): up to 8 days
Method: For cell cultures grown longer than 3 days, culture medium was changed twice weekly, according to standard protocols in the art, and included antibiotics and other standard additives as appropriate.
(§1) Cell cultures were maintained at 37° C. in an atmosphere containing 5% carbon dioxide. Appropriate precautions were taken to prevent accelerated breakdown, including protection of the cell cultures from light.
At each timepoint, triplicate samples were analyzed via growth measurements. The rate of cell proliferation was assayed by counting the number of cells across the 8 day growth period. Absolute cell density was measured with a Coulter Counter. Cell viability was determined by trypan blue staining.

[3] = tested on: human coronary smooth muscle cell (HCSMC); test: Human coronary smooth muscle cell proliferation (Example 14); assay type: cell-based; details: for difference in growth of progesterone treated SMC versus control: 30 μg/ml; for Average Number of Cells/dish / SMC proliferation (in words): HCSMC, progesterone 30 μg/ml; for SMC proliferation (in words): days 1, 3, 5
Method: In addition, cells will be grown for 5 and 7 days. For cell cultures grown longer than 3 days, culture medium is changed twice weekly, according to standard protocols in the art, and includes antibiotics and other standard additives as appropriate.
as §1
Cultured human coronary endothelial and smooth muscle cells were obtained from commercial services. […] Dilutions were prepared using ethanol such that the total quantity of ethanolic drug volume added to any experimental culture was 10 μL. For proliferation and apoptosis studies, EC or SMC was seeded in multiple culture wells at a density of 5,000 cells/cm^2. […] Cell counts were conducted at days 1, 3, and 5 and will be conducted at day 7, using a Coulter counter. From these counts, the influence of the drug concentration on cell growth rate was calculated.
Sampling and analysis of SMC is performed as follows. At each time point, triplicate samples are analyzed for growth measurements. The rate of cell proliferation is assayed by counting the number of cells across the 8 day growth period. Absolute cell density is measured with a Coulter Counter. Cell viability is determined by a live-dead cell apoptosis assay (Molecular Probes, Inc.).

[4] = tested on: human coronary endothelial cells (HCEC); test: Human coronary endothelial cell growth (Example 14); assay type: cell-based
Method: In addition, cells will be grown for 5 and 7 days. For cell cultures grown longer than 3 days, culture medium is changed twice weekly, according to standard protocols in the art, and includes antibiotics and other standard additives as appropriate. […] Addition of the progesterone-treated or control (untreated) medium to the cells was counted as day 0. […] Cell cultures were maintained at 37° C. in an atmosphere containing 5% carbon dioxide. Appropriate precautions were taken to prevent accelerated breakdown, including protection of the cell cultures from light. Cultured human coronary endothelial and smooth muscle cells were obtained from commercial services. […] Dilutions were prepared using ethanol such that the total quantity of ethanolic drug volume added to any experimental culture was 10 μL. For proliferation and apoptosis studies, EC or SMC was seeded in multiple culture wells at a density of 5,000 cells/cm^2. […] Cell counts were conducted at days 1, 3, and 5 and will be conducted at day 7, using a Coulter counter. From these counts, the influence of the drug concentration on cell growth rate was calculated. Sampling and analysis of endothelial cells is performed as follows. At each time point, triplicate samples are analyzed for growth measurements. The rate of cell proliferation is assayed by counting the number of cells across the 8 day growth period. Absolute cell density is measured with a Coulter Counter. Cell viability is determined by a live-dead cell apoptosis assay (Molecular Probes, Inc.).

[5] = tested on: human infragenicular VSMCs; test: Human infragenicular VSMC proliferation under high glucose and insulin (Example 12); assay type: cell-based; details: progesterone 10 ng/mL, glucose 100/200 mg/dL, insulin 0/100 ng/mL, day 6
Method: Methods are according to 2002 J Vasc Surg 36, 833-838, except as otherwise noted.
Human infragenicular VSMCs are isolated from the tibial arteries of male patients with diabetes undergoing lower extremity amputation. Immunocytochemical studies with confocal microscopy are performed for progesterone receptor identification in these VSMCs. Cells are grown to subconfluence, followed by exposure to deprived media with various glucose (100 and 200 mg/dL) and insulin (no insulin and 100 ng/mL) concentrations. […] Cell count and methyl-3H-thymidine incorporation are used to determine cellular proliferation. Cell count with hemocytometry is performed on day 6. DNA synthesis as reflected through methyl-3H-thymidine incorporation is measured at 24 hours.

V189 (VEGF189) = details: perivascular decidual endometrial cells, mid-late secretory phase and early gestation; cited from earlier work
[6] = tested on: platelet suspensions or whole blood; details: in vitro; cited from earlier work
ECs = details: cited from earlier work
vascular SMCs = details: cited from earlier work
[7] = tested on: human aortic endothelial cells (HAEC) or U937 monocytic cells; details: d-alpha-tocopherol 20, 40, 60 micromol/l for 20 h, IL-1beta stimulated; cited from earlier work
HAEC = details: cited from earlier work

C[C@]12CCC(=O)C=C1CC[C@@H]1[C@@H]2[C@@H](O)C[C@@]2(C)[C@H]1CC[C@]2(O)C(=O)CO [cortisol]
concentration inhibiting glucose transport [1]: 1 µM

CC(=O)[C@H]1CC[C@H]2[C@@H]3CCC4=CC(=O)CC[C@]4(C)[C@H]3CC[C@]12C [Progesterone, pregn-4-ene-3,20-dione]
Average number of cells per dish ([2]; day 1): 7902 cells per dish | Average number of cells per dish ([2]; day 3): 14871 cells per dish | Average number of cells per dish ([2]; day 6): 17618 cells per dish | Average number of cells per dish ([2]; day 8): 20018 cells per dish | smooth muscle cell proliferation (in words) [2]: decrease SMC's compared to control in a dose response fashion | smooth muscle cell proliferation (in words) ([2]; listed as progesterone): inhibited smooth muscle cell proliferation | difference in growth of progesterone treated SMC versus control ([3]; day 1, inhibition): 12.1% | difference in growth of progesterone treated SMC versus control ([3]; day 3, inhibition): 20.8% | difference in growth of progesterone treated SMC versus control ([3]; day 5, inhibition): 53.7% | Average Number of Cells/dish ([3]; day 1): 7092 Cells/dish | Average Number of Cells/dish ([3]; day 3): 9492 Cells/dish | Average Number of Cells/dish ([3]; day 5): 10844 Cells/dish | SMC proliferation (in words) [3]: decrease SMC's compared to control in a dose response fashion | SMC proliferation (in words) ([3]; listed as progesterone): showed inhibition of SMC on the first day of treatment; also recorded: inhibits SMC proliferation | increase in growth of the progesterone treated EC versus control ([4]; 30 μg/ml, day 1): 5.3% | difference in growth of progesterone treated EC versus control ([4]; 30 μg/ml, day 3, increase): 27.5% | difference in growth of progesterone treated EC versus control ([4]; 30 μg/ml, day 5, increase): 29.3% | Average Number of Cells/dish ([4]; HCEC, progesterone 30 μg/ml, day 1): 6207 Cells/dish | Average Number of Cells/dish ([4]; HCEC, progesterone 30 μg/ml, day 3): 7227 Cells/dish | Average Number of Cells/dish ([4]; HCEC, progesterone 30 μg/ml, day 5): 8658 Cells/dish | endothelial cell growth (in words) ([4]; HCEC, progesterone 30 μg/ml, days 1, 3, 5): promoted growth of the EC both on the first and third days; also recorded: enhanced endothelial cell growth; also recorded: increases endothelial cells | cellular proliferation by cell count [5]: significantly inhibited cellular proliferation | V189 expression (V189 (VEGF189)): selectively increases

CCCCC/C=C\C=C\CCCCCCCCC(=O)O [C18:2t10c12]
platelet aggregation [6]: inhibit platelet aggregation | EC production of PAF (ECs): inhibit EC production of PAF | secretion of eicosanoids (PGI2 and PGE2) (vascular SMCs): attenuate secretion of eicosanoids

Cc1c(C)c2c(c(C)c1O)CC[C@@](C)(CCC[C@H](C)CCC[C@H](C)CCCC(C)C)O2 [vitamin E, d-alpha-tocopherol]
adhesion of HAEC and U937 monocytic cells [7]: inhibited their adhesion | IL-1beta-induced productions of MCP-1 and IL-8 (HAEC; 20, 40, 60 micromol/l): dose-dependently suppressed | IL-1beta-stimulated expression of ICAM-1, VCAM-1 and E-selectin (HAEC; 20, 40, 60 micromol/l): suppressed | IL-8 production (HAEC; 60 micromol/l): reduced IL-8 production significantly | IL-1beta-induced production of IL-6 (HAEC; at the doses used): dose-dependently inhibited | spontaneous production of IL-6 (HAEC; at the doses used): did not significantly change | spontaneous production of MCP-1 (HAEC; up to 60 micromol/l): not effective

CCCCCC/C=C/C=C/CCCCCCCC(=O)O [C18:2t9t11]
platelet aggregation [6]: inhibit platelet aggregation

CCCCCC/C=C/C=C\CCCCCCCC(=O)O [C18:2c9t11, rumenic acid]
platelet aggregation [6]: inhibit platelet aggregation | EC production of PAF (ECs): inhibit EC production of PAF | secretion of eicosanoids (PGI2 and PGE2) (vascular SMCs): attenuate secretion of eicosanoids
